Test results taken from patent publication US6613772B1, “Substituted 2-aryl-4-amino-chinazolines, method for the production and use thereof as medicaments” (Aventis Pharma Deutschland GmbH, priority 1997, dated 2003).

biological target: T1, soluble guanylate cyclase (sGC) (Bos taurus, UniProt P16068+P19687); assay: Activation of the soluble guanylate cyclase (cGMP enzyme immunoassay); format: biochemical; details: test substance 50 μM; sGC isolated from bovine lung; [cGMP] test substance/[cGMP] control (basal activity, solvent); 37° C., 15 to 20 minutes
T1 construct: The sGC employed had been isolated from bovine lung; from tissue; host or cells: bovine lung
T1 sequence (P19687 1-691): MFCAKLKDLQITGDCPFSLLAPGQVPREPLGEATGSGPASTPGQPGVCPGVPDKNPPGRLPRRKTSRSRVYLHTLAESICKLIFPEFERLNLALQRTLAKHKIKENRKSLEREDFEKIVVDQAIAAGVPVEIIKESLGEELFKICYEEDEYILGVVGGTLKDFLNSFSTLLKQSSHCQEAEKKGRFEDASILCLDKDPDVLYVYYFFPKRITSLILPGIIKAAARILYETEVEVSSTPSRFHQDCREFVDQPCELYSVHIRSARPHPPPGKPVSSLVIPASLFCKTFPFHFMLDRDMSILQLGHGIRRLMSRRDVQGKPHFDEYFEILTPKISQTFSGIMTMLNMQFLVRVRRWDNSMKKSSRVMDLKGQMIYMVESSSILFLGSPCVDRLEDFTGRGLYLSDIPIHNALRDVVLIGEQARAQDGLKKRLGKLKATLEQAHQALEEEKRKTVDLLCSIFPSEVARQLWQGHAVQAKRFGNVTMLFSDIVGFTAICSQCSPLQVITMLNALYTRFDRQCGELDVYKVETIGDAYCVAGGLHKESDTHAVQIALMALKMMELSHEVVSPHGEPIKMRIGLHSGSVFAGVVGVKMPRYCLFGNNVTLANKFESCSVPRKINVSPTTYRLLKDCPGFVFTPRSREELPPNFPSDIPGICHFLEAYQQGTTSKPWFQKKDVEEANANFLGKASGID
T1 sequence (P16068 1-619): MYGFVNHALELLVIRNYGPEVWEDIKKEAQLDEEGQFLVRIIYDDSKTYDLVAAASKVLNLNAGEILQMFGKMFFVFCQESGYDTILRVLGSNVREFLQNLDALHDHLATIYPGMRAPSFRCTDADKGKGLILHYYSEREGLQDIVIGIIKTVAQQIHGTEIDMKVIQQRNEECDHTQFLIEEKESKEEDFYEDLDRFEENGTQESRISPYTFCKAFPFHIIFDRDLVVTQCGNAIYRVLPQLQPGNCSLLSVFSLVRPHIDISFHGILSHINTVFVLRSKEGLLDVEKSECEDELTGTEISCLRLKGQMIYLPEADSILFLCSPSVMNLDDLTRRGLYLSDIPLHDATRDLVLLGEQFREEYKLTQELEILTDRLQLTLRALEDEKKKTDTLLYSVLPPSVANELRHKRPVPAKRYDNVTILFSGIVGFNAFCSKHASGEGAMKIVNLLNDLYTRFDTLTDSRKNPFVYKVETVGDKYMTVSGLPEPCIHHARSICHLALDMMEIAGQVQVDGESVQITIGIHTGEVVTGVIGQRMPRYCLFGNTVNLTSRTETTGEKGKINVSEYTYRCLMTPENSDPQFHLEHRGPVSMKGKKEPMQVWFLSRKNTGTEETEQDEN
Procedure: Activation of the Soluble Guanylate Cyclase
The activation of the soluble guanylate cyclase (sGC), which catalyzes the conversion of guanosine triphosphate (GTP) into cyclic guanosine monophosphate (cGMP) and pyrophosphate, by the compounds according to the invention was quantified with the aid of an enzyme immunoassay (EIA) from Amersham. For this, the test substances were first incubated with sGC in microtiter plates and then the amount of resulting cGMP was determined. The sGC employed had been isolated from bovine lung (see Methods in Enzymology, Volume 195, p. 377). The test solutions (100 μl per well) contained 50 mM triethanolamine (TEA) buffer (pH 7.5), 3 mM MgCl2, 3 mM reduced glutathione (GSH), 0.1 mM GTP, 1 mM 3-isobutyl-1-methylxanthine (IBMX), suitably diluted enzyme solution and the test substance or, in the case of the control experiments, solvent. The test substances were dissolved in dimethyl sulfoxide (DMSO) and the solution was diluted with DMSO/water such that the final concentration of test substance in the test solution was 50 μM. The DMSO concentration in the test solution was 5% (v/v). The reaction was started by addition of the sGC. The reaction mix was incubated at 37° C. for 15 to 20 minutes and then stopped by ice-cooling and addition of the stop reagent (50 mM EDTA, pH 8.0). An aliquot of 50 μl was taken and employed for the determination of the cGMP content using the acetylation protocol of the Amersham cGMP EIA kit. The absorption of the samples was measured at 450 nm (reference wavelength 620 nm) in a microtiter plate reader. The cGMP concentration was determined by means of a calibration curve which was obtained under the same experimental conditions. The activation of the sGC by a test substance is indicated as n-fold stimulation of the basal enzyme activity which was found in the control experiments (with solvent instead of test substance calculated according to the formula
n-fold stimulation=[cGMP]test substance/[cGMP]control).

SMILES	n-fold Stimulation [n-fold]
COc1cc2c(NCCN(C(C)C)C(C)C)nc(-c3ccc(Cl)cc3)nc2c(OC)c1OC.Cl [Example 11, 2-(4-Chlorophenyl)-4-(2-diisopropylaminoethylamino)-6,7,8-trimethoxyquinazoline Hydrochloride]	6
COc1cc2c(N3CCN(CC(=O)N4CCOCC4)CC3)nc(-c3ccc(Cl)cc3)nc2c(OC)c1OC [Example 12, 2-(4-Chlorophenyl)-4-(4-(morpholinocarbonylmethyl)piperazino)-6,7,8-trimethoxyquinazoline]	6

More lines, now with the values ahead:

n-fold Stimulation [n-fold]	SMILES
4	COc1cc2c(N3CCN(Cc4ccccc4)CC3)nc(-c3ccc(Cl)cc3)nc2c(OC)c1OC [Example 09, 2-(4-Chlorophenyl)-4-(4-benzylpiperazino)-6,7,8-trimethoxyquinazoline]
7	COc1cc2c(N3CCN(CCO)CC3)nc(-c3ccc(Cl)cc3)nc2c(OC)c1OC [Example 13, 2-(4-Chlorophenyl)-4-(4-(2-hydroxyethyl)piperazino)-6,7,8-trimethoxyquinazoline]
7	COc1cc2c(N3CCC(O)CC3)nc(-c3ccc(Cl)cc3)nc2c(OC)c1OC [Example 95, 2-(4-Chlorophenyl)-4-(4-hydroxypiperidino)-6,7,8-tdmethoxyquinazoline]

system: not given; assay: not given; details: not given

SMILES	melting point [°C]
COc1cc2c(NCCN(C(C)C)C(C)C)nc(-c3ccc(Cl)cc3)nc2c(OC)c1OC.Cl [Example 11, 2-(4-Chlorophenyl)-4-(2-diisopropylaminoethylamino)-6,7,8-trimethoxyquinazoline Hydrochloride]	189
COc1cc2c(N3CCN(CC(=O)N4CCOCC4)CC3)nc(-c3ccc(Cl)cc3)nc2c(OC)c1OC [Example 12, 2-(4-Chlorophenyl)-4-(4-(morpholinocarbonylmethyl)piperazino)-6,7,8-trimethoxyquinazoline]	177
COc1cc2c(NCc3cccnc3)nc(-c3cc(C(F)(F)F)cc(C(F)(F)F)c3)nc2c(OC)c1OC [Example 65, 2-(3,5-Bistrifluoromethylphenyl)-4-((3-pyridylmethyl)amino)-6,7,8-trimethoxyquinazoline]	229
COc1cc2c(N3CCSCC3)nc(-c3ccc(Cl)cc3)nc2c(OC)c1OC [Example 66, 2-(4-Chlorophenyl)-4-thiomorpholino-6,7,8-trimethoxyquinazoline]	174
COc1cc2c(N3CC[S+]([O-])CC3)nc(-c3ccc(Cl)cc3)nc2c(OC)c1OC [Example 68, 2-(4-Chlorophenyl)-4-(1-oxothiomorpholino)-6,7,8-trimethoxyquinazoline]	198
COc1ccccc1CCNc1nc(-c2ccc(C)cc2)nc2cc(OC)c(OC)cc12 [Example 73, 2-(4-Methylphenyl)-4-(2-(2-methoxyphenyl)ethylamino)-6,7-dimethoxyquinazoline]	205
COc1cc2nc(-c3ccc(Cl)cc3)nc(N3CCSCC3)c2cc1OC [Example 74, 2-(4-Chlorophenyl)-4-thiomorpholino-6,7-dimethoxyquinazoline]	214
COc1cc2nc(-c3ccc(Cl)cc3)nc(N3CC[S+]([O-])CC3)c2cc1OC [Example 76, 2-(4-Chlorophenyl)-4-(1-oxothiomorpholino)-6,7-dimethoxyquinazoline]	226
CCCN(CCC)c1nc(-c2ccc(Cl)cc2)nc2c(OC)c(OC)c(OC)cc12 [Example 80, 2-(4-Chlorophenyl)-4-dipropylamino-6,7,8-trimethoxyquinazoline]	109
CCCN(CCC)c1nc(-c2cc(C(F)(F)F)cc(C(F)(F)F)c2)nc2c(OC)c(OC)c(OC)cc12 [Example 82, 2-(3,5-Bistrifluoromethylphenyl)-4-dipropylamino-6,7,8-trimethoxyquinazoline]	121
COCCCNc1nc(-c2ccc(C)cc2)nc2cc(OC)c(OC)cc12 [Example 84, 2-(4-Methylphenyl)-4-(3-methoxypropylamino)-6,7-dimethoxyquinazoline]	162
COc1cc2nc(-c3ccc(Cl)cc3)nc(N3CC(C)OC(C)C3)c2cc1OC (stereo not drawn) [Example 85, 2-(4-Chlorophenyl)-4-(2,6-dimethylmorpholino)-6,7-dimethoxyquinazoline]	165
COCCCNc1nc(-c2ccc(Cl)cc2)nc2cc(OC)c(OC)cc12 [Example 86, 2-(4-Chlorophenyl)-4-(3-methoxypropylamino)-6,7-dimethoxyquinazoline]	240
COc1cc2nc(-c3ccc(Cl)cc3)nc(N3C[C@@H](C)O[C@@H](C)C3)c2cc1OC [Example 90, 2-(4-Chlorophenyl)-4-(cis-2,6-dimethylmorpholino)-6,7-dimethoxyquinazoline]	223

Next, values leading:

melting point [°C]	SMILES
175	COc1cc2c(N3CCN(CCO)CC3)nc(-c3ccc(Cl)cc3)nc2c(OC)c1OC [Example 13, 2-(4-Chlorophenyl)-4-(4-(2-hydroxyethyl)piperazino)-6,7,8-trimethoxyquinazoline]
241	COc1cc2c(N3CCS(=O)(=O)CC3)nc(-c3ccc(Cl)cc3)nc2c(OC)c1OC [Example 69, 2-(4-Chlorophenyl)-4-(1,1-dioxothiomorpholino)-6,7,8-trimethoxyquinazoline]
250	COc1cc2nc(-c3ccc(C)cc3)nc(NCc3cccc([N+](=O)[O-])c3)c2cc1OC [Example 72, 2-(4-Methylphenyl)-4-((3-nitrophenylmethyl)amino)-6,7-dimethoxyquinazoline]
213	COc1cc2nc(-c3ccc(C)cc3)nc(N3CCSCC3)c2cc1OC [Example 75, 2-(4-Methylphenyl)-4-thiomorpholino-6,7-dimethoxyquinazoline]
216	COc1cc2nc(-c3ccc(C)cc3)nc(N3CC[S+]([O-])CC3)c2cc1OC [Example 77, 2-(4-Methylphenyl)-4-(1-oxothiomorpholino)-6,7-dimethoxyquinazoline]
141	COc1cc2c(N3CCN(c4ccccn4)CC3)nc(-c3ccc(Cl)cc3)nc2c(OC)c1OC [Example 78, 2-(4-Chlorophenyl)-4-(4-(2-pyridyl)piperazino)-6,7,8-trimethoxyquinazoline]
223	CCCN(CCC)c1nc(-c2ccc(Cl)cc2)nc2cc(OC)c(OC)cc12 [Example 81, 2-(4-Chlorophenyl)-4-dipropylamino-6,7-dimethoxyquinazoline]
177	COc1cc2nc(-c3ccc(C)cc3)nc(N3CC(C)OC(C)C3)c2cc1OC (stereo not drawn) [Example 83, 2-(4-Methylphenyl)-4-(2,6-dimethylmorpholino)-6,7-dimethoxyquinazoline]
225	COc1cc2nc(-c3ccc(Cl)cc3)nc(N3CCC(C(N)=O)CC3)c2cc1OC [Example 88, 2-(4-Chlorophenyl)-4-(4-aminocarbonylpiperidino)-6,7-dimethoxyquinazoline]
189	COc1cc2nc(-c3ccc(Cl)cc3)nc(N3CCCCCC3)c2cc1OC [Example 89, 2-(4-Chlorophenyl)-4-hexamethyleneimino-6,7-dimethoxyquinazoline]
165	COc1cc2nc(-c3ccc(C)cc3)nc(N(C)Cc3cccnc3)c2cc1OC [Example 97, 2-(4-Methylphenyl)-4-(N-methyl-N-(3-pyridylmethyl)amino)-6,7-dimethoxyquinazoline]
